US20210262025A1, “MULTIPLEXED IN VIVO DISEASE SENSING WITH NUCLEIC ACID-BARCODED REPORTERS” (Massachusetts Institute of Technology, priority 2020, published 2021)
Entries after “also recorded” stand apart in the source; their conditions may differ. Strand notation (5' to 3'): a small letter for the sugar, then the base; units joined by * are phosphorothioate-linked, units joined directly phosphodiester-linked; [ ] holds rarer units or linkages, { } end groups; capitals alone tell only the bases. Primed or numbered codes have the meaning given here. Where no end group is shown, it is not given here. [ ]: non-standard residue; d: D form. The star is where a group is joined. 5FAM = O=C1OC2(c3ccc(O)cc3Oc3cc(O)ccc32)c2ccc(C(=O)*)cc21; PEG2′ = not defined here; d = 2'-deoxy (DNA); CPQ2 = quencher

Columns and labels:
LbaCas12a [1] = experiment: Cas12a fluorescent cleavage assay with urine of mice injected with DNA activators; assay type: in vivo, Lachnospiraceae bacterium ND2006; conditions: urine collected after 1 h added to reaction
From the text: (§1) In particular, the Cas12a from Lachnospiraceae bacterium ND2006 (LbaCas12a, UniProtKB Accession No. A0A182DWE3) assembled with guide CRISPR RNA sequences (crRNAs) recognizes 1) a T nucleotide-rich protospacer-adjacent motif (PAM) to target double-stranded DNA (dsDNA), or 2) single-stranded DNA (ssDNA) through sequence complementarity in a PAM-independent manner, and unleashes a robust, nonspecific ssDNA trans-cleavage activity that can be monitored using a fluorophore (F)-quencher (Q)-labeled reporter (FIG. 2A) (Chen et al. Science 360, 436-439 (2018)). […] In Table 6, activation of Cas12a with native and modified DNA oligos was quantified in the Cas12a fluorescent cleavage assay. […]
(§2) LbCas12a (final concentration 100 nM, New England Biolabs) was incubated with 1× NEB BUFFER™ 2.1, crRNA (250 nM, IDT) and complementary DNA activators (4 nM unless specifically described, IDT, in solution or spiked in urine) or urine samples collected from experimental animals at 37° C. for 30 min. […] LbCas12a activation was detected at 37° C. every 2 min for 3 hours by measuring fluorescence with plate reader Tecan Infinite Pro M200 (λex: 485 nm and λem: 535 nm). Fluorescence for background conditions (either no DNA activator input or no crRNA conditions) were run with each assay to generate background fluorescence as negative controls. […]

LbaCas12a [2] = experiment: Cas12a fluorescent cleavage assay, DNA activators in solution; assay type: biochemical, Lachnospiraceae bacterium ND2006
From the text: as §1, §2

tumor tissue homogenates = experiment: Tissue lysate proteolytic cleavage assay of FRET-paired peptide substrates; assay type: biochemical, Balb/c mice; conditions: tumor-bearing or healthy lung tissue homogenates, ex vivo
Protocol: FIGS. 6A-6E show experiments relating to portable monitoring invasive CRC using DNA-encoded multiplex synthetic urine biomarkers. […] Peptide cleavage kinetics were monitored and cleavage rates were plotted (n=5 mice per group; ±SEM; unpaired t-test with Welch's correction, **P<0.01, ****P<0.0001). […] All urine samples were collected at 1 h after sensor administration. Cas12a trans-cleavage assays were performed against each DNA-barcode with the fluorophore-quencher paired reporter. Initial reaction velocity (V0) of the Cas12a trans-cleavage assays were calculated and normalized to that of saline injected control animals (n=8 or 10 mice per group; ±SEM; unpaired t-test with Welch's correction, *P<0.05, **P<0.01). The initial reaction velocity (V0) refers to the slope of the curve at the beginning of a reaction. […] Band intensities were quantified using ImageJ. […] ROC analysis utilized ratio of quantified cleaved reporter band intensity over its corresponding control band intensity. Dashed line represents an AUC of 0.5, and a perfect AUC is 1.0.
Tissue samples were homogenized in PBS and centrifuged at 4° C. for 5 min at 6,000×g. Supernatant was further centrifuged at 14,000×g for 25 min at 4° C. Protein concentration was measured using ThermoFisher BCA Protein Assay Kit and prepared at 2 mg/mL prior to assay. Assays were performed in the 384-well plate in triplicate in enzyme-specific buffer with peptides (1 μM) and cell lysates (0.33 mg/mL) in 30 μL at 37° C. Fluorescence was measured at Ex/Em 485/535 nm using a Tecan Infinite 200pro microplate reader (Tecan). Signal increase at 60 min was used across conditions.

[3] = tested on: serine and metalloproteases; experiment: Recombinant protease substrate cleavage assay; assay type: biochemical
Protocol: Fluorogenic protease substrates with fluorophore (FAM) and quencher (CPQ2) were synthesized by CPC Scientific Inc. Recombinant proteases were purchased from Enzo Life Sciences and R&D Systems. Assays were performed in the 384-well plate in triplicate in enzyme-specific buffer with peptides (1 μM) and proteases (40 nM) in 30 μL at 37° C. Fluorescence was measured at Ex/Em 485/535 nm using a Tecan Infinite 200pro microplate reader (Tecan). Signal increase at 60 min was used across conditions.

FRET-PAP11 = tested on: T1, FRET-PAP11
T1 sequence: GGGSGRSANAKGKGC

subcutaneous PC-3 tumors = tested on: subcutaneous PC-3 tumors; design: species or system nude mice; conditions: mouse, in vivo
Protocol: Studies were performed in experimental animals with near-infrared dye labeled agents to minimize interference from autofluorescent background. Balb/c mice were intravenously injected with Cy5-labeled modified or native DNA molecules at 1 nmol per mouse, n=3 per condition. Urine samples from each mouse was collected at 30 min, 1, 2, 3, 4 hours after injection. C-met nanobodies were coupled with Sulfo-Cyanine7 NHS ester (Lumiprobe), reacted overnight, purified by spin filtration and injected into PC-3 tumor-bearing nude mice (1.5 nmol dye eq. of protein) via i.v. injection. After 24 hours, mice were euthanized and necropsy was performed to remove the tumors, lungs, heart, kidneys, liver, and spleen. Urine, blood and organs were scanned using IVIS Imaging Systems and ODYSSEY® CLx (LI-COR). Organ fluorescence was quantified in ImageStudio of ODYSSEY® CLx. Blood circulatory kinetics were monitored in Balb/c mice by serial blood draws at 10 min, 30 min, 120 min and 180 min after i.v. injection of Cy5-labeled DNA or PEG at 1 nmol dye per mouse. Blood for pharmacokinetics measurements was collected using tail vain bleeds. Blood was diluted in PBS with 5 mM EDTA to prevent clotting, centrifuged for 5 min at 5,000×g, and fluorescent reporter concentration was quantified in 384-well plates relative to standards (LI-COR ODYSSEY® CLx).

[4] = Solubility of purified recombinant nanobody; assay type: physicochemical; conditions: after affinity and size-exclusion chromatography
From the text: One major challenge for diagnosis and therapy of cancer is tailoring multiple disease signatures, which are defined by biological differences spanning genetic, transcriptomic, and proteomic differences between tumor and healthy tissue, while minimizing off-target effects (Hunter, K. Nature reviews. Cancer 2006, 6, 141). To this end, a tumor-targeting nanobody was re-engineered to construct protease-activatable nanobodies through programmable genetic encoding (FIGS. 5A-5B). Protease-activatable nanobodies were constructed by inserting a well characterized PLAU substrate (PQ2: GGSGRSANAK (SEQ ID NO: 3)) with an unpaired cysteine for one-step site-specific labeling of cargos via a thio-ether bond (see, e.g., Masa et al., Bioconjugate chemistry 2014, 25, 979). The cysteine was introduced at the carboxyl terminus, positioning the conjugation-site on the opposite side of the antigen-binding region to avoid antigen binding interference. To prevent possible misfolding caused by the internal disulfide bond present in the Nb, the peptide substrate with cysteine is spaced by a rigid linker (SPSTPPTPSPSTPP (SEQ ID NO: 6)) from the Nb sequence.

cMET = target: T2, cMET (human, UniProt P08581 25-1390); experiment: in vivo biodistribution (IVIS imaging) of Cy7-labelled nanobody after i.v. injection into nude mice bearing cMET-expressing PC-3 xenografts
T2 construct: whole, on cells; The target is presented on cMET- and PLAU-expressing tumors derived from PC-3 cells in nude mice; It is not a purified protein
T2 sequence (P08581 25-1390): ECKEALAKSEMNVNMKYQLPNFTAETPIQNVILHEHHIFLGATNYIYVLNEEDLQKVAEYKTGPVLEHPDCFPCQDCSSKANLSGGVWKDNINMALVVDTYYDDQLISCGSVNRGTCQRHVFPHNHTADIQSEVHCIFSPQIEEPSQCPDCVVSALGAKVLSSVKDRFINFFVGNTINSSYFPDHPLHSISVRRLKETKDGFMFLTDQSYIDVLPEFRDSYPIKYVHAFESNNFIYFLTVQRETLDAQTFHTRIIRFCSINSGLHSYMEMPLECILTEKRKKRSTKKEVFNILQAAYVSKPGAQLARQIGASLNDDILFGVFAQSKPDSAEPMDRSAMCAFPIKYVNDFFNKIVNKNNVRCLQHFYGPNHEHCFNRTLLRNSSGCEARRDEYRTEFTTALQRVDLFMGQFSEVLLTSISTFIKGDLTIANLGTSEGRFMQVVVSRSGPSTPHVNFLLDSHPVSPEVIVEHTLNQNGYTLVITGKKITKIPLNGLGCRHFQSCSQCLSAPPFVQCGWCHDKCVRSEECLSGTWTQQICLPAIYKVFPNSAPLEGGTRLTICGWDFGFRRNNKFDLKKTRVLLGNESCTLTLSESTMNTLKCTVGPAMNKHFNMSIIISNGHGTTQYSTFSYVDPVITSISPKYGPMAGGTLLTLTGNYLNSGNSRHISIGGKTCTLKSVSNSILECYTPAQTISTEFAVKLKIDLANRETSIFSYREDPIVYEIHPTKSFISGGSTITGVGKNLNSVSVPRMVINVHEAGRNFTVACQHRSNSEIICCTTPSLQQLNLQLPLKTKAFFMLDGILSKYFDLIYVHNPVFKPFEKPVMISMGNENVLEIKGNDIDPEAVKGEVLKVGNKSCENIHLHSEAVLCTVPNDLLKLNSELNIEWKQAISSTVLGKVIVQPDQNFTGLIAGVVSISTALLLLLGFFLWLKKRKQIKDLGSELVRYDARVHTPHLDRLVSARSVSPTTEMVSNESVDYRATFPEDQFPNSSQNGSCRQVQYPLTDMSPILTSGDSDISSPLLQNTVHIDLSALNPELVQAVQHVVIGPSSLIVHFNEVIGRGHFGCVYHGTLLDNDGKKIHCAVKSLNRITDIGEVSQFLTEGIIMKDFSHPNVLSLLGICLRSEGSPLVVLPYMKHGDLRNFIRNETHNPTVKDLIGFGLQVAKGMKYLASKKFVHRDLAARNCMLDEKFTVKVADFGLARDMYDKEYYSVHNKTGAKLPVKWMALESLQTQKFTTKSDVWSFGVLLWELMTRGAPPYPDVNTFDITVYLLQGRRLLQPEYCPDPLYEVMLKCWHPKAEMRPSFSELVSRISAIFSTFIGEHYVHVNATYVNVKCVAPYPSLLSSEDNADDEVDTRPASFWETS

For “Mod 10 mer: fully phosphorothioate-modified ssDNA activator, SEQ ID NO: 35 (DNA dC*dG*dT*dA*dA*dC*dG*dA*dT*dC)”, the “Modified DNA in vivo (V0)” value (LbaCas12a [1]; 1 nmol modified DNA activator injected into healthy Balb/c mice) was 0.01 and the “Modified DNA in vitro (V0)” value (LbaCas12a [2]; initial reaction velocity (slope at beginning of reaction), 4 nM of phosphorothioate-modified DNA activator per reaction) was 0.01.

For “FRET-PAP7: 5FAM-GGPLGVRGKK(CPQ2)-PEG2-GC (SEQ ID NO: 61) (5FAM-GGPLGVRGKK(CPQ2)[PEG2′]GC)”, the “cleavage by tissue homogenates” value (tumor tissue homogenates) was “specifically cleaved”.

With “FRET-PAP9: 5FAM-GGfPRSGGGK(CPQ2)-PEG2-GC (SEQ ID NO: 63)” the “cleavage by tissue homogenates” value (tumor tissue homogenates) was “specifically cleaved; also recorded: distinct cleavage patterns” and the “cleavage by recombinant proteases in vitro” value [3] was “cleaved by serine and metalloproteases in vitro”.

In the case of “FRET-PAP11: 5FAM-GGGSGRSANAKG-K(CPQ2)-PEG2-GC (SEQ ID NO: 65) (5FAM-GGGSGRSANAKGK(CPQ2)[PEG2′]GC)”, the “cleavage by tissue homogenates” value (tumor tissue homogenates) is reported as “specifically cleaved”.

For “PLAU (urokinase-type plasminogen activator), recombinant”, the “cleavage of FRET-paired peptide substrate by recombinant protease (fluorogenic activity assay, FIG. 13D)” value (FRET-PAP11) was “The peptide substrate specifically responded to the PCa-associated protease PLAU”.

In the case of “10 mer: native ssDNA activator CGTAACGATC (SEQ ID NO: 28) (unmodified DNA)”, the “Native DNA in vivo (V0)” value (LbaCas12a [1]; 1 nmol native DNA activator injected into healthy Balb/c mice) is reported as 0.00 and the “Native DNA in vitro (V0)” value (LbaCas12a [2]; initial reaction velocity, 4 nM of native DNA activator per reaction) is reported as 0.00.

In the case of “FRET-PAP13: 5FAM-GGVPRGG-K(CPQ2)-PEG2-GC (SEQ ID NO: 67) (5FAM-GGVPRGGK(CPQ2)[PEG2′]GC)”, the “cleavage by tissue homogenates” value (tumor tissue homogenates) is reported as “specifically cleaved”.

B1: cMET nanobody: PLAU-activated, cMET-targeting nanobody with rigid linker, PLAU substrate and unpaired cysteine, SEQ ID NO: 71 (protein)
VHH: MEVQLVESGGGLVQPGGSLRLSCAASGFILDYYAIGWFRQAPGKEREGVLCIDASDDITYYADSVKGRFTISRDNAKNTVYLQMNSLKPEDTGVYYCATPIGLSSSCLLEYDYDYWGQGTLVTVSSGSHHHHHHSPSTPPTPSPSTPPGSGRSANAKGGGSC
For B1, the “tumor trafficking upon systemic administration” value (subcutaneous PC-3 tumors) was “mediated active tumor trafficking” and the solubility [4] was “comparable solubility with the original Nb”.

B2: GFP nanobody: non-targeting nanobody against GFP (Clone LaG-16) with rigid linker, PLAU substrate and cysteine, SEQ ID NO: 72 (protein)
VHH: MAQVQLVESGGRLVQAGDSLRLSCAASGRTFSTSAMAWFRQAPGREREFVAAITWTVGNTILGDSVKGRFTISRDRAKNTVDLQMDNLEPEDTAVYYCSARSRGYVLSVLRSVDSYDYWGQGTQVTVSGSHHHHHHSPSTPPTPSPSTPPGSGRSANAKGGGSC
In the case of B2, the “tumor trafficking upon systemic administration” value (subcutaneous PC-3 tumors) is reported as “did not”.

B3: cMET nanobody (PLAU-activated, cMET-targeting nanobody) (VHH)
VHH: EVQLVESGGGLVQPGGSLRLSCAASGFILDYYAIGWFRQAPGKEREGVLCIDASDDITYYADSVKGRFTISRDNAKNTVYLQMNSLKPEDTGVYYCATPIGLSSSCLLEYDYDYWGQGTLVTVSS
modifications: labelled with Sulfo-Cyanine7 NHS ester for the biodistribution study (sites not given)
notes: also called C-met nanobodies; Nb-PAS
B3: binds (cMET).
